Measurements taken from patent publication US20250215029A1 (Recludix Pharma, Inc., priority 2022, published 2025).
Where two headings read alike, the source gives them in different places.

Tests used:
[1] = molecular target: T1, Recombinant STAT3 protein (STAT3 (G127-I722)) (Homo sapiens, UniProt P40763); experiment: STAT3 Fluorescence Polarization (FP) Assay; format: binding; details: probe 5-FAM-GpYLPQTV-NH2 2 nM, 45-minute incubation
T1 construct: Recombinant STAT3 protein (STAT3 (G127-I722))
Summary of the method: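 Displacement of a 2 nM 5-FAM-labelled pY peptide (GpYLPQTV) from 25 nM recombinant STAT3 (G127-I722) was monitored by fluorescence polarization. Incubation lasted 45 min at room temperature in pH 7.4 HEPES buffer containing 1% DMSO.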

[2] = molecular target: T2, Recombinant STAT6 protein (STAT6 (W123-T658)) (Homo sapiens, UniProt P42226); experiment: STAT6 Fluorescence Polarization (FP) Assay; format: binding; details: 45-minute incubation
T2 construct: Recombinant STAT6 protein (STAT6 (W123-T658))
T2 sequence (P42226 123-658): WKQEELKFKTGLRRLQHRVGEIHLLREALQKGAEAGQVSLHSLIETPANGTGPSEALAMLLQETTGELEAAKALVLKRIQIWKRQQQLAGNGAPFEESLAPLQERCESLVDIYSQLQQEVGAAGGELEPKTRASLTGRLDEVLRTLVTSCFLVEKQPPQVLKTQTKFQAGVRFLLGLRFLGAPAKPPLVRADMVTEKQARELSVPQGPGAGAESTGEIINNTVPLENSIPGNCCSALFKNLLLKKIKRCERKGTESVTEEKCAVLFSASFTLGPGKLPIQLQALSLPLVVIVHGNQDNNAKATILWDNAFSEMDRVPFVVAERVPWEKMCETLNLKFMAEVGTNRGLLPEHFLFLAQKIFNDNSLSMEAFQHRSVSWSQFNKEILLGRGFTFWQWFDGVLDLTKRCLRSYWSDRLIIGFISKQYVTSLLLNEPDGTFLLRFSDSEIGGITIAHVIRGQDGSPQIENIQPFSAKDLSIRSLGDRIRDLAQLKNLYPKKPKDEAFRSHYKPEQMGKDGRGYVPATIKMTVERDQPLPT
Summary of the method: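 Probe displacement format: serially diluted compounds incubated 45 min at room temperature with 2 nM fluorescent phosphopeptide and 250 nM STAT6 (W123-T658) in pH 7.4 HEPES buffer, 1% DMSO final. Polarization signal plotted against log concentration, IC50 fitted by nonlinear regression.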

[3] = STAT3 (G127-I722) 25 nM, read-out: STAT3 (FP assay IC50 class)
[4] = STAT6 (W123-T658) 250 nM, probe 5-FAM-Ap[…]-NH2 2 nM, read-out: STAT6 (FP assay IC50 class)
[5] = STAT3 25 nM, read-out: STAT3 (FP assay IC50)
[6] = STAT6 250 nM, probe 5-FAM-Ap[…]-NH2 2 nM, read-out: STAT6 (FP assay IC50)

T1 sequence (P40763 127-722): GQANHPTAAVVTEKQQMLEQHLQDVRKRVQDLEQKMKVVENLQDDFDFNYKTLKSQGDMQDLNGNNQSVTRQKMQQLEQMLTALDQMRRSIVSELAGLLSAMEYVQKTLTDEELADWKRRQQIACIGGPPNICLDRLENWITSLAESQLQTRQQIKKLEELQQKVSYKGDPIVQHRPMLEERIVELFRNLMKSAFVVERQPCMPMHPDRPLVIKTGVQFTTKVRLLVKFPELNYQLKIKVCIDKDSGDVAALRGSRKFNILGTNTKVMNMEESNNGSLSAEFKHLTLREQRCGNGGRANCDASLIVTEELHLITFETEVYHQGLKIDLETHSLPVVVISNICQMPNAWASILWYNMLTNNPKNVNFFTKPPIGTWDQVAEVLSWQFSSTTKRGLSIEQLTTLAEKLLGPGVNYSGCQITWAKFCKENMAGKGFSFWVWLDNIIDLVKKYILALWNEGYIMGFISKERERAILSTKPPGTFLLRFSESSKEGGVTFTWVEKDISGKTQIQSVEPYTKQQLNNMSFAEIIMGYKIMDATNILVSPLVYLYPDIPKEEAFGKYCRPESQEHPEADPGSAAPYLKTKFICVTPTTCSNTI

SMILES | IC50 [1, 3] [µM] | IC50 [2, 4] [µM] | IC50 [1, 5] [µM] | IC50 [2, 6] [µM] | IC50 ([2]; STAT6 (W123-T658) 250 nM, probe 5-FAM-ApYKPFQDLI-NH2 2 nM, read-out: STAT6 (FP assay IC50 class)) [µM]
O=C(N[C@H]1CCC[C@H]2CC[C@@H](C(=O)N3CC(c4cnccc4C4OCCO4)C3)N2C1=O)c1cc2cc(CP(=O)(O)O)ccc2s1 [Compound 546, ((2-(((3S,6S,9aS)-3-(3-(4-(1,3-dioxolan-2-yl)pyridin-3-yl)azetidine-1-carbonyl)-5-oxooctahydro-1H-pyrrolo[1,2-a]azepin-6-yl)carbamoyl)benzo[b]thiophen-5-yl)methyl)phosphonic acid] | 1 to 10 | 3 to 30 | – | – | –
O=C(N[C@H]1CCC[C@H]2CC[C@@H](C(=O)N3CC(c4cccnc4C(F)F)C3)N2C1=O)c1cc2cc(CP(=O)(O)O)ccc2s1 [Compound 562, ((2-(((3S,6S,9aS)-3-(3-(2-(difluoromethyl)pyridin-3-yl)azetidine-1-carbonyl)-5-oxooctahydro-1H-pyrrolo[1,2-a]azepin-6-yl)carbamoyl)benzo[b]thiophen-5-yl)methyl)phosphonic acid] | 0.1 to 1 | 3 to 30 | – | – | –
O=C(N[C@H]1CCC[C@H]2CC[C@@H](C(=O)N3CC(c4cc(F)ccn4)C3)N2C1=O)c1cc2cc(CP(=O)(O)O)ccc2s1 [Compound 541, ((2-(((3S,6S,9aS)-3-(3-(4-fluoropyridin-2-yl)azetidine-1-carbonyl)-5-oxooctahydro-1H-pyrrolo[1,2-a]azepin-6-yl)carbamoyl)benzo[b]thiophen-5-yl)methyl)phosphonic acid] | 1 to 10 | 3 to 30 | – | – | –
CC1(c2ccccn2)CN(C(=O)[C@@H]2CC[C@@H]3CCC[C@H](NC(=O)c4cc5cc(CP(=O)(O)O)ccc5s4)C(=O)N32)C1 [Compound 548, ((2-(((3S,6S,9aS)-3-(3-methyl-3-(pyridin-2-yl)azetidine-1-carbonyl)-5-oxooctahydro-1H-pyrrolo[1,2-a]azepin-6-yl)carbamoyl)benzo[b]thiophen-5-yl)methyl)phosphonic acid] | 1 to 10 | 3 to 30 | – | – | –
Cc1nnc(C2CN(C(=O)[C@@H]3CC[C@@H]4CCC[C@H](NC(=O)c5cc6cc(C(F)(F)P(=O)(O)O)ccc6s5)C(=O)N43)CCO2)o1 (stereo partly drawn) [Compound 1127, (difluoro(2-(((3S,6S,9aS)-3-(2-(5-methyl-1,3,4-oxadiazol-2-yl)morpholine-4-carbonyl)-5-oxooctahydro-1H-pyrrolo[1,2-a]azepin-6-yl)carbamoyl)benzo[b]thiophen-5-yl)methyl)phosphonic acid] | 0.1 to 1 | 0.3 to 3 | – | – | –
COCC1(c2ccccc2)CN(C(=O)[C@@H]2CC[C@@H]3CCC[C@H](NC(=O)c4cc5cc(C(F)(F)P(=O)(O)O)ccc5s4)C(=O)N32)C1 [Compound 777, (difluoro(2-(((3S,6S,9aS)-3-(3-(methoxymethyl)-3-phenylazetidine-1-carbonyl)-5-oxooctahydro-1H-pyrrolo[1,2-a]azepin-6-yl)carbamoyl)benzo [b]thiophen-5-yl)methyl) phosphonic acid] | < 0.1 | 0.3 to 3 | – | – | –
O=C(N[C@H]1CCC[C@H]2CC[C@@H](C(=O)N3CC(c4cnccc4F)C3)N2C1=O)c1cc2cc(CP(=O)(O)O)ccc2s1 [Compound 514, ((2-(((3S,6S,9aS)-3-(3-(4-fluoropyridin-3-yl)azetidine-1-carbonyl)-5-oxooctahydro-1H-pyrrolo[1,2-a]azepin-6-yl)carbamoyl)benzo[b]thiophen-5-yl)methyl)phosphonic acid] | < 0.1 | 3 to 30 | – | – | –
O=C(N[C@H]1CCC[C@H]2CC[C@@H](C(=O)N3CC(c4cccnc4)CC34CC4)N2C1=O)c1ccc2ccc(C(F)P(=O)(O)O)cc2c1 (stereo partly drawn) [Compound 904, (fluoro(7-(((3S,6S,9aS)-5-oxo-3-(6-(pyridin-3-yl)-4-azaspiro[2.4]heptane-4-carbonyl)octahydro-1H-pyrrolo[1,2-a]azepin-6-yl)carbamoyl)naphthalen-2-yl)methyl) phosphonic acid] | 1 to 10 | 0.3 to 3 | – | – | –
COc1ccncc1C1CN(C(=O)[C@@H]2CC[C@@H]3CCC[C@H](NC(=O)c4cc5cc(CP(=O)(O)O)ccc5s4)C(=O)N32)C1 [Compound 502, ((2-(((3S,6S,9aS)-3-(3-(4-methoxypyridin-3-yl)azetidine-1-carbonyl)-5-oxooctahydro-1H-pyrrolo[1,2-a]azepin-6-yl)carbamoyl)benzo[b]thiophen-5-yl)methyl)phosphonic acid] | 0.1 to 1 | 3 to 30 | – | – | –
C/C1=C/C[C@H](NC(=O)c2cc3cc(CP(=O)(O)O)ccc3s2)C(=O)N2[C@H](CC[C@H]2C(=O)N2CC(c3cnccc3C)C2)C1 [Compound 642, ((2-(((3S,6S,10aR,Z)-9-methyl-3-(3-(4-methylpyridin-3-yl)azetidine-1-carbonyl)-5-oxo-1,2,3,5,6,7,10,10a-octahydropyrrolo[1,2-a]azocin-6-yl)carbamoyl)benzo [b]thiophen-5-yl)methyl) phosphonic acid] | 0.1 to 1 | 3 to 30 | – | – | –
Cn1nccc1C=C1CN(C(=O)[C@@H]2CC[C@@H]3CCCC[C@H](NC(=O)c4cc5cc(C(F)(F)P(=O)(O)O)ccc5s4)C(=O)N32)C1 [Compound 69, (difluoro(2-(((3S,6S,10aS)-3-(3-((1-methyl-1H-pyrazol-5-yl)methylene)azetidine-1-carbonyl)-5-oxodecahydropyrrolo [1,2-a]azocin-6-yl)carbamoyl)benzo[b]thiophen-5-yl)methyl) phosphonic acid] | – | – | 0.1 to 1 | 0.3 to 3 | –
CC(NC(=O)[C@@H]1CC[C@@H]2CCCC[C@H](NC(=O)c3cc4cc(C(F)(F)P(=O)(O)O)ccc4s3)C(=O)N21)c1cc[nH]c(=O)c1 (stereo partly drawn) [Compound 792, (difluoro(2-(((3S,6S,10aS)-5-oxo-3-((1-(2-oxo-1,2-dihydropyridin-4-yl)ethyl)carbamoyl)decahydropyrrolo[1,2-a]azocin-6-yl)carbamoyl)benzo [b]thiophen-5-yl)methyl) phosphonic acid] | 0.1 to 1 | 0.3 to 3 | – | – | –
N#CC1CN(C(=O)[C@@H]2C[C@@H](O)[C@H]3C/C=C\C[C@H](NC(=O)c4cc5cc(C(F)(F)P(=O)(O)O)ccc5s4)C(=O)N32)CC1c1ccccc1 (relative stereo) [Compound 758, ((2-(((1R,3S,6S,10aR,Z)-3-((rel-trans)-3-cyano-4-phenylpyrrolidine-1-carbonyl)-1-hydroxy-5-oxo-1,2,3,5,6,7,10,10a-octahydropyrrolo[1,2-a]azocin-6-yl)carbamoyl)benzo [b]thiophen-5-yl)difluoromethyl) phosphonic acid] | 1 to 10 | – | – | – | 0.3 to 3
CC(c1ccc2ccc(C(=O)N[C@H]3CCCC[C@H]4CC[C@@H](C(=O)N5C[C@@H](c6ccccc6)CC56CC6)N4C3=O)cc2c1)P(=O)(O)O (single isomer, unassigned) [Compound 897] | 1 to 10 | 3 to 30 | – | – | –
COC1(c2cnccc2C)CN(C(=O)[C@@H]2CC[C@@H]3CCC[C@H](NC(=O)c4cc5cc(C(F)(F)P(=O)(O)O)ccc5s4)C(=O)N32)C1 [Compound 722, (difluoro(2-(((3S,6S,9aS)-3-(3-methoxy-3-(4-methylpyridin-3-yl)azetidine-1-carbonyl)-5-oxooctahydro-1H-pyrrolo[1,2-a]azepin-6-yl)carbamoyl)benzo [b]thiophen-5-yl)methyl) phosphonic acid] | 0.1 to 1 | 3 to 30 | – | – | –
CS(=N)(=O)CC1CN(C(=O)[C@@H]2CC[C@@H]3CCCC[C@H](NC(=O)c4cc5cc(C(F)(F)P(=O)(O)O)ccc5s4)C(=O)N32)C1 (stereo partly drawn) [Compound 66, (difluoro(2-(((3S,6S,10aS)-3-(3-((S-methyl-sulfonimidoyl)methyl)azetidine-1-carbonyl)-5-oxodecahydropyrrolo [1,2-a]azocin-6-yl)carbamoyl)benzo[b]thiophen-5-yl)methyl) phosphonic acid] | – | – | < 0.1 | 3 to 30 | –
COCC(NC(=O)[C@@H]1CC[C@@H]2CCCC[C@H](NC(=O)c3cc4cc(C(F)(F)P(=O)(O)O)ccc4s3)C(=O)N21)c1c[nH]c2ncccc12 (stereo partly drawn) [Compound 1121, (difluoro(2-(((3S,6S,10aS)-3-((2-methoxy-1-(1H-pyrrolo[2,3-b]pyridin-3-yl)ethyl)carbamoyl)-5-oxodecahydropyrrolo[1,2-a]azocin-6-yl)carbamoyl)benzo[b]thiophen-5-yl)methyl)phosphonic acid] | 1 to 10 | 3 to 30 | – | – | –
